Data taken from patent US20220096515A1, “Methods and Formulations for Preventing Neurological or Psychiatric Disorders” (Huntington Medical Research Institutes, priority 2020, published 2022).

Columns and labels:
Assay type in all cases: in vivo, mouse
Gabrb3^ECKO mice = assay: Y maze spontaneous alternation test; conditions: vs saline-treated Gabrb3^ECKO mice
Procedure: Behavioral Experiments: Mice were housed in our animal facility with a 12-hour light cycle with ad libitum access to food and water. Offspring stayed with their mothers until weaning at PND 21 after which males and females were separated. Before all behavioral testing, mice were acclimated to the testing room for 1 hour. Behavioral assays were performed according to established protocols referenced here: self-grooming, light-dark box, tail suspension test, Y-maze, open field locomotion activity, three chamber social interaction test and nest building with nestlets and with shredded paper. Both males and females were used for all behavioral assays. Experimenters scoring behaviors were blinded to the genotypes and treatment. Sample sizes for each assay are noted in figure legends.
Anxiety was next assessed with the classic light-dark transition test which triggers a struggle between the desires to explore a novel environment versus natural aversion of a brightly illuminated open space. […] The Y maze spontaneous alternation test was used to evaluate for spatial learning and memory in the three groups of mice. After introduction to the center of the maze, the mice were given free access to all three arms. […] The total number of arm entries and the sequence of entries are recorded in order to calculate the percentage of alternation. […]

P2X4 = P2X4 mRNA and protein expression in endothelial cells after prenatal treatment; conditions: after six-day treatment paradigm
Procedure: Primary culture of endothelial cells and endothelial cell staining: Embryonic brains were dissected under a stereo-microscope, after the NAD^+ treatment paradigm and the telencephalon was removed. Pial membranes were peeled off. Telencephalon without pial membranes from the periventricular region was pooled. Purity of endothelial cell cultures was established with endothelial cell markers and determined to be one hundred percent. Isolation and culture of endothelial cells were performed according to published methodology. Periventricular endothelial cells were prepared from CD1 (wild type), saline-treated Gabrb3^fl/fl, saline-treated Gabrb3^ECKO, and NAD^+-treated Gabrb3^ECKO embryos. […]
Quantitative real-time PCR: RT was performed by using iScript Reverse Transcription Supermix kit (Bio-Rad). […] The relative gene expression and subsequent fold changes among different samples were determined according to published methodology.
An important aspect that influences endothelial cell proliferation is Ca^2+ influx, which is important for cell cycle progression in the neocortex. […] Therefore, P2X4 expression at both mRNA and protein levels in periventricular endothelial cells were evaluated, prepared after the six-day saline and NAD^+ treatment paradigm (FIGS. 11J-11O). […]

Gabrb3^fl/fl littermates = assay: Prenatal NAD+ treatment, H&E of MGE in Gabrb3^fl/fl littermates; conditions: NAD^+-treated Gabrb3^fl/fl littermates
Procedure: Histology, immunohistochemistry, and microscopic analysis: Paraffin immunohistochemistry (IHC) was performed on embryonic brains only while frozen section IHC was used on both embryonic and adult brains. Briefly, for paraffin IHC-E18 brains were fixed in zinc fixative (BD Biosciences PharMingen) for 24 h and processed for paraffin histology. Histological stainings with hematoxylin (Vector Laboratories) and eosin (Sigma) were performed on 8 μm coronal sections. Lectin histochemistry (with biotinylated isolectin B4, 1:50, Sigma) as well as IHC was performed on 20 μm sections. Primary antibodies used for IHC were as follows: anti-PHH3 (1:200, Millipore) and anti-NKX2.1, (1:50; Sigma) followed by secondary detection with AlexaFluor conjugates (Invitrogen). DAPI (Vector Laboratories) was used to label nuclei. For frozen section IHC, E18 and P90 brains were removed, fixed in 4% PFA for 24 hours, cryo-protected in sucrose gradient, embedded into OCT medium for frozen blocks; sectioned at 40 μm on a cryostat and immunostained with anti-GABA (1:80, Sigma) and anti -PROX1 (1:80, Millipore) antibodies. Twenty sections from each brain were used for IHC and histology experiments. Uniform penetration of antibodies or stains throughout the section was ascertained and quality of the staining in each digital section was examined. […]

With `NC(=O)c1ccc[n+]([C@@H]2O[C@H](COP(=O)([O-])OP(=O)(O)OC[C@H]3O[C@@H](n4cnc5c(N)ncnc54)[C@H](O)[C@@H]3O)[C@@H](O)[C@H]2O)c1` [NAD^+] the percentage alternations (Gabrb3^ECKO mice) was “significant increase in percentage alternations”, the “P2X4 mRNA and protein expression” value (P2X4) was “its expression was rescued” and the “cellular arrangement in MGE (H&E)” value (Gabrb3^fl/fl littermates) was “the same distinct cellular arrangement in the MGE”.
